Source: article PMC11062922 (Nature Chemical Biology, 2023)
“And” between values parts separate entries of the source, which are not always exact repeats. Equal entries are not always repeated.

How the values were obtained:
ERN1 = biological target: T1, ERN1 (Homo sapiens, UniProt O75460); assay: Kinobeads two-dose competition binding: ERN1; details: read-out: Lestaurtinib Drugmatrix value, Gene Name ERN1
T1 construct: endogenous in cells

PRKAG2 = biological target: T2, PRKAG2 (Homo sapiens, UniProt Q9UGJ0); assay: Kinobeads competition binding, Lestaurtinib control replicates: PRKAG2; details: read-out: Lestaurtinib Drugmatrix value, PRKAG2; Gene Name PRKAG2; one column per experiment number and replicate (R1-R3)
T2 construct: endogenous in cells

[1] = biological target: T3, endogenous kinases and other proteins enriched by Kinobeads from mixed lysates of K-562, COLO-205, MV-4-11, SK-N-BE(2) and OVCAR-8 (Homo sapiens, UniProt P42345); assay: Kinobeads competition binding profiling, two doses (100 nM and 1 µM); details: read-out: Lestaurtinib Drugmatrix value (apparent Kd), Gene Name MTOR; target MTOR; each column = one Lestaurtinib control run_replicate;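 further: inhibitor preincubated 45 min at 4 °C in cell lysate, then bead pulldown. Bound protein quantified by label-free mass spectrometry relative to DMSO vehicle control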
T3 construct: endogenous in cells

[2] = biological target: T4, endogenous kinases and other proteins enriched by Kinobeads from mixed lysates of K-562, COLO-205, MV-4-11, SK-N-BE(2) and OVCAR-8 (Homo sapiens, UniProt Q05397); assay: as above; details: read-out: Lestaurtinib Drugmatrix value, Gene Name PTK2
T4 construct: endogenous in cells

[3] = biological target: T5, endogenous kinases and other proteins enriched by Kinobeads from mixed lysates of K-562, COLO-205, MV-4-11, SK-N-BE(2) and OVCAR-8 (Homo sapiens, UniProt Q15569); assay: as above; details: read-out: Lestaurtinib Drugmatrix value, Gene Name TESK1; target TESK1; one Lestaurtinib control experiment/replicate (R1-R3)
T5 construct: endogenous in cells

[4] = tested on: endogenous kinases and other proteins enriched by Kinobeads from mixed lysates of K-562, COLO-205, MV-4-11, SK-N-BE(2) and OVCAR-8; assay: as above; set-up: species or system human
[5] = biological target: T6, endogenous kinases and other proteins enriched by Kinobeads from mixed lysates of K-562, COLO-205, MV-4-11, SK-N-BE(2) and OVCAR-8 (Homo sapiens, UniProt O43353); assay: as above; details: read-out: Lestaurtinib Drugmatrix value, Gene Name RIPK2; target RIPK2; one Lestaurtinib control experiment/replicate (R1-R3)
T6 construct: to maximize the representation of endogenous proteins; endogenous in cells

ACAD11 = biological target: T7, ACAD11 (Homo sapiens, UniProt Q709F0); assay: Kinobeads two-dose competition binding: ACAD11; details: read-out: Lestaurtinib Drugmatrix value, Gene Name ACAD11
T7 construct: endogenous in cells
T7 sequence (Q709F0 1-780): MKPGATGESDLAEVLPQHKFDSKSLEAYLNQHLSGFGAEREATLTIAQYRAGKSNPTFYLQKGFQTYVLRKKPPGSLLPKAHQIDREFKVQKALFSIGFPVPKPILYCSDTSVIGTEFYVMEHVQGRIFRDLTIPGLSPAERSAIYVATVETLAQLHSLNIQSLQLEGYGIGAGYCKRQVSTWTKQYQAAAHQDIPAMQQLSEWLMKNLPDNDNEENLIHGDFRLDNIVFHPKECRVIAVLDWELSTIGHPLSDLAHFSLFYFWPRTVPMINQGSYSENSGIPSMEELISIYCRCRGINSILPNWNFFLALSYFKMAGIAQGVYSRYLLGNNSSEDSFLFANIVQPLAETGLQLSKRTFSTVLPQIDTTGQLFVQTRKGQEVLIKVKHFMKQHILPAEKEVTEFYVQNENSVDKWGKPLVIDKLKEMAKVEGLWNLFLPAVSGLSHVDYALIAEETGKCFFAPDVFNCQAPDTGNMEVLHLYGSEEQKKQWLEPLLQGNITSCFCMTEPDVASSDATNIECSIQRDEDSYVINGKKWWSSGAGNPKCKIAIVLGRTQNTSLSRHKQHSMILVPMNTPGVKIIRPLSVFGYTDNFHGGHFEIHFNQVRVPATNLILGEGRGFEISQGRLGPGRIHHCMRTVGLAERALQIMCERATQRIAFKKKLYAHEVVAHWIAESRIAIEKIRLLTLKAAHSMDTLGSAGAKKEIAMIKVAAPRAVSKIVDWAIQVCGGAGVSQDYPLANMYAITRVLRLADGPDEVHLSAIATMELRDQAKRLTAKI

[6] = biological target: T8, endogenous kinases and other proteins enriched by Kinobeads from mixed lysates of K-562, COLO-205, MV-4-11, SK-N-BE(2) and OVCAR-8 (Homo sapiens, UniProt Q9H2G2); assay: Kinobeads competition binding profiling, two doses (100 nM and 1 µM); details: SLK;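 further: inhibitor preincubated 45 min at 4 °C in cell lysate, then bead pulldown. Bound protein quantified by label-free mass spectrometry relative to DMSO vehicle control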
T8 construct: endogenous in cells

[7] = biological target: T9, endogenous kinases and other proteins enriched by Kinobeads from mixed lysates of K-562, COLO-205, MV-4-11, SK-N-BE(2) and OVCAR-8 (Homo sapiens, UniProt P54762); assay: as above; details: EPHB1
T9 construct: endogenous in cells

[8] = biological target: T10, endogenous kinases and other proteins enriched by Kinobeads from mixed lysates of K-562, COLO-205, MV-4-11, SK-N-BE(2) and OVCAR-8 (Homo sapiens, UniProt P29597); assay: as above; details: TYK2(JH2domain-pseudokinase)
T10 construct: endogenous in cells

[9] = biological target: T11, endogenous kinases and other proteins enriched by Kinobeads from mixed lysates of K-562, COLO-205, MV-4-11, SK-N-BE(2) and OVCAR-8 (Homo sapiens, UniProt P51956); assay: as above; details: NEK3
T11 construct: endogenous in cells

[10] = biological target: T12, endogenous kinases and other proteins enriched by Kinobeads from mixed lysates of K-562, COLO-205, MV-4-11, SK-N-BE(2) and OVCAR-8 (Homo sapiens, UniProt Q13627); assay: as above; details: DYRK1A
T12 construct: endogenous in cells

[11] = biological target: T13, endogenous kinases and other proteins enriched by Kinobeads from mixed lysates of K-562, COLO-205, MV-4-11, SK-N-BE(2) and OVCAR-8 (Homo sapiens, UniProt P22694); assay: as above; details: PKAC-beta
T13 construct: endogenous in cells

[12] = biological target: T14, endogenous kinases and other proteins enriched by Kinobeads from mixed lysates of K-562, COLO-205, MV-4-11, SK-N-BE(2) and OVCAR-8 (Homo sapiens, UniProt P80192); assay: as above; details: MLK1
T14 construct: endogenous in cells

PRKACG = biological target: T15, PRKACG (Homo sapiens, UniProt P22612); assay: Kinobeads full dose-response competition binding: PRKACG; details: Gene Name PRKACG
T15 construct: endogenous in cells
T15 sequence (P22612 whole entry): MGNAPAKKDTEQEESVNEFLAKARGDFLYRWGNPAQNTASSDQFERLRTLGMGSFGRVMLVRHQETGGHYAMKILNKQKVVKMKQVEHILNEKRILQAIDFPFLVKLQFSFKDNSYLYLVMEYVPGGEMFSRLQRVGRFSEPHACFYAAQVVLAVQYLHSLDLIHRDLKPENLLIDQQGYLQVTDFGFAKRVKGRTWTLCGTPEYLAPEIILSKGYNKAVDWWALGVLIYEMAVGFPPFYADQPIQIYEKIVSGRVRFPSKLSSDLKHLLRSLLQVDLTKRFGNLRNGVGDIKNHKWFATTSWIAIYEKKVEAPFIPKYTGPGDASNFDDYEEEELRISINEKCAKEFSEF

T2 sequence (Q9UGJ0 whole entry): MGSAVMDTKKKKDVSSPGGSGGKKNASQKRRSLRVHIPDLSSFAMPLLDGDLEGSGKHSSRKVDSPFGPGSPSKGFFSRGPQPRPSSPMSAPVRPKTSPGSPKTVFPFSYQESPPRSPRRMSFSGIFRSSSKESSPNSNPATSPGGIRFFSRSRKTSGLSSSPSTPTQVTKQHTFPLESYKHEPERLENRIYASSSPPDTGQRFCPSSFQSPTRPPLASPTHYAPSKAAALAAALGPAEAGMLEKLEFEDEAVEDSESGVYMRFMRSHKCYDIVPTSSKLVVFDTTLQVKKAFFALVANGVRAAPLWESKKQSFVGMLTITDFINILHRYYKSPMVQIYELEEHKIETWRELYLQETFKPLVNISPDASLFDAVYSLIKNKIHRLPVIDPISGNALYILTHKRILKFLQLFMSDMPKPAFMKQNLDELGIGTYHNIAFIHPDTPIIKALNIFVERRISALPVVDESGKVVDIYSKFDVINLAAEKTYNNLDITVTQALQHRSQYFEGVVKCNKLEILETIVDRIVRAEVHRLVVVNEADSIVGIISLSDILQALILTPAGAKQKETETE
T2 sequence (Q13131 whole entry partner): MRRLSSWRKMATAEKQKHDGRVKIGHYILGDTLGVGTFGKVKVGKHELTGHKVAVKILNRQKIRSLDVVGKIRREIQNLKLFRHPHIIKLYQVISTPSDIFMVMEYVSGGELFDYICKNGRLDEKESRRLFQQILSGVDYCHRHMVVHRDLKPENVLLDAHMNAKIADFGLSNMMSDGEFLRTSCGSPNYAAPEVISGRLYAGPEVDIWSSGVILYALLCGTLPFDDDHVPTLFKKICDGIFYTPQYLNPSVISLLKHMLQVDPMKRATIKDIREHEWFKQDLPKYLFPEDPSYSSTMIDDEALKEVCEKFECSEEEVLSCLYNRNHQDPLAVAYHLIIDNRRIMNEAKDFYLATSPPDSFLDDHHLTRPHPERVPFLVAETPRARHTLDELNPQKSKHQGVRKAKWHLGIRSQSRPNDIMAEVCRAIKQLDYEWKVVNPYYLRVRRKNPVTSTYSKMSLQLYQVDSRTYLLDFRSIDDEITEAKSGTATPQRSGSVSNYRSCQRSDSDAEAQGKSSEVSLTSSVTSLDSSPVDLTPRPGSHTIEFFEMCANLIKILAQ
T2 sequence (Q9Y478 2-270 partner limits assumed): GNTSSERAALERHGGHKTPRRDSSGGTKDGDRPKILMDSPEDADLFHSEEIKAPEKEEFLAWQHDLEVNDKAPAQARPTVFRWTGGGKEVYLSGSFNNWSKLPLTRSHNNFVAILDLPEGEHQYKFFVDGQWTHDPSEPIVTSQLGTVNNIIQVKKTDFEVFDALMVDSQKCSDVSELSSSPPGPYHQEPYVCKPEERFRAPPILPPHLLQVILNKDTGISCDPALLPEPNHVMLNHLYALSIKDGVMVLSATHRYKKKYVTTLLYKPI
T14 sequence (P80192 whole entry): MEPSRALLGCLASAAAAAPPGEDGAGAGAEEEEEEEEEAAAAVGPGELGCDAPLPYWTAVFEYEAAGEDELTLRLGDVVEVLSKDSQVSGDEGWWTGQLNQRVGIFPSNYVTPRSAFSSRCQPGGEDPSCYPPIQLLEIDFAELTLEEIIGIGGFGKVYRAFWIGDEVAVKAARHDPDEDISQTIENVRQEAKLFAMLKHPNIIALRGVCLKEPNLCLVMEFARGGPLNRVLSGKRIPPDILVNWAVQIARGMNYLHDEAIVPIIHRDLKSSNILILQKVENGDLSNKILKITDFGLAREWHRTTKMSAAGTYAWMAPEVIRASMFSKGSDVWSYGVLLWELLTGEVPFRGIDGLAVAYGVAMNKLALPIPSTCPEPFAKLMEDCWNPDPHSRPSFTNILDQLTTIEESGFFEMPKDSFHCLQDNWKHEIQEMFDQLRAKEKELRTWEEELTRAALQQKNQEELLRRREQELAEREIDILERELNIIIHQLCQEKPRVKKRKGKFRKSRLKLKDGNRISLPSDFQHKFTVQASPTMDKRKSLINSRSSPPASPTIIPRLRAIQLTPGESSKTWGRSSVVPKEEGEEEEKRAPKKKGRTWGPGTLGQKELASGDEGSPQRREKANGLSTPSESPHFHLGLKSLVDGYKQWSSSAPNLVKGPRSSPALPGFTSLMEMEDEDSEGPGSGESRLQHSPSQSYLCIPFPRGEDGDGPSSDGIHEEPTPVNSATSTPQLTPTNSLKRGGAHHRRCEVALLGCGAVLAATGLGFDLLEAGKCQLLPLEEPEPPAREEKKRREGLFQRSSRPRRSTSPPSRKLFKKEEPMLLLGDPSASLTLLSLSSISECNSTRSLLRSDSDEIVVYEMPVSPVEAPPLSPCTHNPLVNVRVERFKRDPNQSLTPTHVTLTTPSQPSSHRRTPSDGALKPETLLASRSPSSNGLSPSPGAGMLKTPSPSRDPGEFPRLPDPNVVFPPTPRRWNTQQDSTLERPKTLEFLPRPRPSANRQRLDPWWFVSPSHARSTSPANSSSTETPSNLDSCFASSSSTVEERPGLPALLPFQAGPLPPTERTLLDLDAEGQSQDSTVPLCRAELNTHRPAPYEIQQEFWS
T10 sequence (P29597 whole entry): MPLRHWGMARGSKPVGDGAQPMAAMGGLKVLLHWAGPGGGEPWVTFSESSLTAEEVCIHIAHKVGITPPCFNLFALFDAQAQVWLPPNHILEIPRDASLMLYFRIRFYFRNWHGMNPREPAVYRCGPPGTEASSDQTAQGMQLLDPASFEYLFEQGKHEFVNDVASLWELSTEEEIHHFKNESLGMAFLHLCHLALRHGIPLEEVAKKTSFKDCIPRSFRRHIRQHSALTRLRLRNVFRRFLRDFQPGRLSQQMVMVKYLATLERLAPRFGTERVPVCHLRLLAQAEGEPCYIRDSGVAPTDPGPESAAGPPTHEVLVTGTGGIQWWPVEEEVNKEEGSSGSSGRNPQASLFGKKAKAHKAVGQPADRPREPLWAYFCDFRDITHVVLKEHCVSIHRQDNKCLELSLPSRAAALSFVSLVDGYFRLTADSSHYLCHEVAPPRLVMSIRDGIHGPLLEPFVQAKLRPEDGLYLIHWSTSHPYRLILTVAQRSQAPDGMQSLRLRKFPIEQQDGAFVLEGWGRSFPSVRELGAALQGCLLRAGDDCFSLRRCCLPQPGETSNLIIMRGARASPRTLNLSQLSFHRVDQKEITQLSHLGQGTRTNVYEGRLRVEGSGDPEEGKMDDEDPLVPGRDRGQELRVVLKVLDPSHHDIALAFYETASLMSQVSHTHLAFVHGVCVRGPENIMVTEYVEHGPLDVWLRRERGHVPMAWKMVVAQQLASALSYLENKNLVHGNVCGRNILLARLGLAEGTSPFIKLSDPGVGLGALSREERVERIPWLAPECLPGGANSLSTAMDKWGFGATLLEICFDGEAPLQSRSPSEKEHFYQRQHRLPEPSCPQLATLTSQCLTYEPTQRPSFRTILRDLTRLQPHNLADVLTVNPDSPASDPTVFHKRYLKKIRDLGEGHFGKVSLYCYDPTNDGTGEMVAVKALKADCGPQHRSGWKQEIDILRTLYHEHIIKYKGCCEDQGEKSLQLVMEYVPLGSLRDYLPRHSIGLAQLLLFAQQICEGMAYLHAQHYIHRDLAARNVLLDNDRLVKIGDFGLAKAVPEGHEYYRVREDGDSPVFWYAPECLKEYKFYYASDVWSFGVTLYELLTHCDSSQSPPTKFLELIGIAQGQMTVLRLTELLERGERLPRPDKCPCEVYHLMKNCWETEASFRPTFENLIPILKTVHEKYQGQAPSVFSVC
T11 sequence (P51956 whole entry): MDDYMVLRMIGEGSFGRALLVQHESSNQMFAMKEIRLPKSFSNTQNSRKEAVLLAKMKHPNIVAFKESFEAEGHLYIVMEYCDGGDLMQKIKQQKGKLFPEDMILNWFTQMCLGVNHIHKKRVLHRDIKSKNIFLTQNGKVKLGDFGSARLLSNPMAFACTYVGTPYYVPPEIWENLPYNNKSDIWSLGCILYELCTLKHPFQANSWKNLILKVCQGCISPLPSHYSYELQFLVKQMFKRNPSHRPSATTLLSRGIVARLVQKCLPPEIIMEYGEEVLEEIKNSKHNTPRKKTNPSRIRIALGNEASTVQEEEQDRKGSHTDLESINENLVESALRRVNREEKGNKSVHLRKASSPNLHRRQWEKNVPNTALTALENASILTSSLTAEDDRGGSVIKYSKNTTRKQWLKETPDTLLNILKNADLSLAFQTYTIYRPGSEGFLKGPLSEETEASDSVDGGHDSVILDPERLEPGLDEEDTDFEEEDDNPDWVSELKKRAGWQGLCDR

SMILES: C[C@]12O[C@H](C[C@]1(O)CO)n1c3ccccc3c3c4c(c5c6ccccc6n2c5c31)CNC4=O [Lestaurtinib]
- potency estimated from few doses (ERN1): 176 nM
- potency estimated from few doses (PRKAG2): 888 nM (2×) and 629 nM and 352 nM and 850 nM and 720 nM
- potency estimated from few doses [1]: 482 nM
- potency estimated from few doses [2]: 345 nM
- potency estimated from few doses [3]: 622 nM
- number of targets in the Kinobead assay [4]: 76
- potency estimated from few doses [5]: 810 nM
- potency estimated from few doses (ACAD11): 890 nM

SMILES: COc1cc(Nc2ncc3c(C)nc(-c4cc5ccccc5[nH]4)n3n2)cc(OC)c1OC [GW869516X]
- Kinobeads Data [6]: no target
- Kinobeads Data [7]: no target
- Kinobeads Data [8]: no target
- Kinobeads Data [9]: no target
- Kinobeads Data [10]: no target
- Kinobeads Data [11]: no target
- Kinobeads Data [12]: no target

SMILES: CCn1c(-c2nonc2N)nc2c(C#CC(C)(C)O)nc(OCCNC)cc21 [GSK949675A]
- Relative Intensity 0.3nM (PRKACG; 0.3nM compound, DMSO = 1): 0.6931
- Relative Intensity 1nM (PRKACG; 1nM compound, DMSO = 1): 0.8057
- Relative Intensity 3nM (PRKACG; 3nM compound, DMSO = 1): 0.9707
- Relative Intensity 10nM (PRKACG; 10nM compound, DMSO = 1): 0.8006
- Relative Intensity 30nM (PRKACG; 30nM compound, DMSO = 1): 0.7952
- Relative Intensity 100nM (PRKACG; 100nM compound, DMSO = 1): 0.9305
- Relative Intensity 300nM (PRKACG; 300nM compound, DMSO = 1): 0.645
- Relative Intensity 1000nM (PRKACG; 1000nM compound, DMSO = 1): 0.4141
- Kd (PRKACG; EC50 with Correction, doses in nM, read-out: apparent Kd): 262 nM
- EC50 (PRKACG; eight-dose curve fit, doses in nM): 303 nM
